Article PMC12383145, “Fluorescent Peptides Internalize HeLa Cells and Kill Multidrug-Resistant Clinical Bacterial Isolates” (Antibiotics, 2025)
Residues, ends and D or L forms follow the SMILES beside them. *: point of attachment. RhodamineB = CCN(CC)c1ccc2c(-c3ccccc3C(=O)*)c3ccc(=[N+](CC)CC)cc-3oc2c1

How the values were obtained:
Format in all cases: cell-based
E. coli ATCC 25922 = settings: ATCC 25922, 24 h
E. faecalis ATCC 29212 = settings: ATCC 29212, 24 h
[1] = test system: K. pneumoniae ATCC 700603; settings: ATCC 700603, 24 h
P. aeruginosa ATCC 27853 = settings: ATCC 27853, 24 h
S. aureus ATCC 25923 = settings: ATCC 25923, 24 h
[2] = test system: E. coli clinical isolate 1004 (susceptible); settings: clinical isolate 1004 (susceptible, 24 h)
[3] = test system: E. coli clinical isolate 129797 (resistant); settings: clinical isolate 129797 (resistant, 24 h)
[4] = test system: E. coli clinical isolate 301755 (MDR); settings: clinical isolate 301755 (MDR, 24 h)
[5] = test system: E. faecalis clinical isolate 179; settings: clinical isolate 179, 24 h
[6] = test system: E. faecalis clinical isolate 213; settings: clinical isolate 213, 24 h
[7] = test system: E. faecalis clinical isolate 82; settings: clinical isolate 82, 24 h
[8] = test system: S. aureus clinical isolate 109095; settings: clinical isolate 109095, 24 h
[9] = test system: S. aureus clinical isolate 124653; settings: clinical isolate 124653, 24 h
Hemolysis assay = experiment: Hemolysis assay
erythrocytes = experiment: Hemolysis assay; settings: 2 h
HeLa cells = experiment: Micrographs of cell morphology after peptide treatment; settings: 100 µg/mL, 2 h, 37 °C
Excerpt: Despite these pronounced morphological alterations, there was no evidence of cell rupture, membrane disintegration, or the presence of cell fragments, indicating the absence of necrotic processes. […] Green arrows indicate normal morphologies, such as cytoplasmic elongations and polygonal shapes. Red arrows indicate morphological changes induced by the peptides, including cell rounding, shrinkage, and loss of cytoplasmic projections. Scale bar: µm. The control corresponds to untreated cells.

What does the source list for `CCN(CC)c1ccc2c(-c3ccccc3C(=O)N[C@@H](CCCNC(=N)N)C(=O)N[C@@H](Cc3c[nH]c4ccccc34)C(=O)N[C@@H](CCC(N)=O)C(=O)N[C@@H](Cc3c[nH]c4ccccc34)C(=O)N[C@@H](CCCNC(=N)N)C(=O)N[C@@H](Cc3c[nH]c4ccccc34)C(=O)N[C@@H](CCC(N)=O)C(=O)N[C@@H](Cc3c[nH]c4ccccc34)C(=O)N[C@@H](CCCNC(=N)N)C(N)=O)c3ccc(=[N+](CC)CC)cc-3oc2c1` [RhB-1, RhB-RWQWRWQWR] (RhodamineB-RWQWRWQWR-NH2)?
Minimal bactericidal concentration (MBC) (E. coli ATCC 25922): > 105 µM; Minimal inhibitory concentration (MIC) (E. coli ATCC 25922): > 105 µM; Minimal bactericidal concentration (MBC) (E. faecalis ATCC 29212): 52 µM; Minimal inhibitory concentration (MIC) (E. faecalis ATCC 29212): 52 µM; Minimal bactericidal concentration (MBC) [1]: > 105 µM; Minimal inhibitory concentration (MIC) [1]: > 105 µM; Minimal bactericidal concentration (MBC) (P. aeruginosa ATCC 27853): > 105 µM; Minimal inhibitory concentration (MIC) (P. aeruginosa ATCC 27853): > 105 µM; Minimal bactericidal concentration (MBC) (S. aureus ATCC 25923): 52 µM; Minimal inhibitory concentration (MIC) (S. aureus ATCC 25923): 26 µM; Minimal bactericidal concentration (MBC) [2]: > 105 µM; Minimal inhibitory concentration (MIC) [2]: > 105 µM; Minimal bactericidal concentration (MBC) [3]: > 105 µM; Minimal inhibitory concentration (MIC) [3]: > 105 µM; Minimal bactericidal concentration (MBC) [4]: > 105 µM; Minimal inhibitory concentration (MIC) [4]: > 105 µM; Minimal bactericidal concentration (MBC) [5]: > 105 µM; Minimal inhibitory concentration (MIC) [5]: > 105 µM; Minimal bactericidal concentration (MBC) [6]: > 105 µM; Minimal inhibitory concentration (MIC) [6]: > 105 µM; Minimal bactericidal concentration (MBC) [7]: 105 µM; Minimal inhibitory concentration (MIC) [7]: 26 µM; Minimal bactericidal concentration (MBC) [8]: 105 µM; Minimal inhibitory concentration (MIC) [8]: 26 µM; Minimal bactericidal concentration (MBC) [9]: 105 µM; Minimal inhibitory concentration (MIC) [9]: 105 µM; selectivity ratio (Hemolysis assay): 0.2; hemolysis (Hemolysis assay; Percentage of hemolysis): 19%; Therapeutic index (erythrocytes): 0.5; morphological changes (HeLa cells): appeared smaller, rounded, and contained vacuoles
